From the NIST ThermoML archive (doi:10.1021/je700751a)

Experiment: mn = molality of the nth substance listed, in mol/kg
Details: 101 kPa, Liquid; for viscosity: Capillary tube (Ostwald / Ubbelohde) method

O=C([O-])[C@H](O)[C@@H](O)C(=O)[O-].[K+].[K+] [dipotassium L-tartrate] + O
Details	mass density, 298.15 K [kg/m3]	mass density, 308.15 K [kg/m3]	mass density, 318.15 K [kg/m3]	speed of sound, 298.15 K [m/s]	viscosity, 298.15 K [mPa·s]	viscosity, 308.15 K [mPa·s]	viscosity, 318.15 K [mPa·s]
m1 = 0.0222	–	–	–	–	0.879	0.718	0.595
m1 = 0.0312	–	–	–	–	0.892	0.723	0.601
m1 = 0.0398	1002.88	999.78	995.909	1502.5	–	–	–
m1 = 0.0498	1004.29	1001.18	997.282	1503.7	–	–	–
m1 = 0.0516	–	–	–	–	0.902	0.731	0.609
m1 = 0.0615	1005.99	1002.85	998.942	1505.4	–	–	–
m1 = 0.0697	1007.18	1004.01	1000.09	1506.5	–	–	–
m1 = 0.073	–	–	–	–	0.911	0.737	0.612
m1 = 0.0797	1008.56	1005.39	1001.44	1508.8	–	–	–
m1 = 0.0897	1010.01	1006.8	1002.86	1509.5	–	–	–
m1 = 0.0909	–	–	–	–	0.917	0.75	0.623
m1 = 0.0996	1011.42	1008.21	1004.24	1510.3	–	–	–
m1 = 0.1822	–	–	–	–	0.948	0.773	0.639
m1 = 0.2842	–	–	–	–	0.985	0.799	0.665
m1 = 0.3	1039.02	1035.42	1031.19	1535.7	–	–	–
m1 = 0.3843	–	–	–	–	1.012	0.821	0.693
m1 = 0.4639	–	–	–	–	1.04	0.847	0.705
m1 = 0.4985	1064.81	1060.93	1056.45	1559.5	–	–	–
m1 = 0.6883	–	–	–	–	1.125	0.916	0.764
m1 = 0.6922	1088.8	1084.65	1079.98	1582.2	–	–	–
m1 = 0.8934	1112.36	1108	1103.17	1605.2	–	–	–
m1 = 1.098	–	–	–	–	1.294	1.054	0.879
m1 = 1.284	1155.12	1150.41	1145.3	1648.3	–	–	–
m1 = 1.468	–	–	–	–	1.474	1.206	1.006
m1 = 1.579	1185.12	1180.16	1174.96	1680.5	–	–	–
m1 = 1.878	–	–	–	–	1.71	1.389	1.157
m1 = 1.965	1221.2	1216.05	1210.59	1718.3	–	–	–
m1 = 2.443	1262.59	1257.21	1251.59	1764	–	–	–
m1 = 2.602	–	–	–	–	2.243	1.801	1.483
m1 = 2.923	1299.6	1294.09	1288.34	1805.2	–	–	–
m1 = 3.391	1331.8	1326.15	1320.32	1841.5	–	–	–
m1 = 3.405	–	–	–	–	3.301	2.613	2.12
m1 = 3.858	1362.45	1356.74	1350.83	1876.2	–	–	–
m1 = 4.077	–	–	–	–	4.296	3.367	2.7
m1 = 4.324	1389.87	1384.06	1378.1	1907	–	–	–
m1 = 4.785	1414.66	1408.83	1402.83	1935.4	–	–	–
m1 = 5.188	–	–	–	–	6.378	4.841	3.829
m1 = 5.238	1437.73	1431.81	1425.78	1960.6	–	–	–
m1 = 5.378	–	–	–	–	7.066	5.339	4.176
m1 = 5.692	1459.07	1453.12	1447.06	1984.8	–	–	–
